From article PMC6199279, “Design of Peptoid-peptide Macrocycles to Inhibit the β-catenin TCF Interaction in Prostate Cancer” (Nature Communications, 2018)
pIC50: −log10 of the molar value. Numbered stars: 1 amine (or outer) side, 2 acyl side, 3 side chain; on linkers, the order of the positions; unused ones are H or OH. Square brackets hold non-standard residues; d marks the D form. Peptide text beside a SMILES is read from it. N(2-(2-PhOPh)Et)Gly = O=C(O)CNCCc1ccccc1Oc1ccccc1; Gly(N-3,5-(OMe)2-Ph) = COc1cc(NCC(=O)O)cc(OC)c1; X1 = COc1ccc([C@H](C)N(CC(=O)[*:2])[*:1])cc1; N((CH2)3OiPr)Gly = CC(C)OCCCNCC(=O)O

Tests used:
[1] = test system: U2OS (osteosarcoma) cells; assay: 2D proliferation (CellTiter-Fluor viability), U2OS; type: cell-based; conditions: Wnt-independent cell line, 5 days
[2] = test system: LNCaP-abl and LNCaP-95 cells; assay: RT-qPCR of Wnt and AR target genes; type: cell-based; conditions: 10 µM, 24 h
Protocol: To test the effect of 13 in a model of prostate cancer, we used the LNCaP-abl and LNCaP-95 cell lines. These cell lines were derived from androgen-sensitive LNCaP cells, and passaged in androgen-deprived media to mimic the development of castration resistance in patient tumors[54],[55]. We first isolated mRNA from LNCaP-abl and LNCaP-95 cells treated with vehicle, 10 µM 13 and linear 13 for 24 h to check the expression of endogenous Wnt and AR target genes (Fig. 4a). […] AR-V7 is particularly challenging to target as most AR antagonists target the ligand binding domain. […] To check if the changes in Wnt and AR target gene expression translated into effects on growth, the viability of LNCaP-abl and LNCaP-95 cells was determined after 5 days of treatment (Fig. 4b).
Data are presented as mean and SD (n = 3) of three independent experiments (a) or representative of three independent experiments (b, c).
LNCaP-abl and LNCaP-95 cells were cultured in indicator free RPMI 1640 media (Life) supplemented with 10% charcoal stripped FBS, 1% pennicillin/streptomycin, and 1% L-Glutamine. HEK-293 Cells were cultured in DMEM media (Life) supplemented with 10%FBS and 1% pennicillin/streptomycin. A549 and U2OS cells were cultured in RPMI 1640 media (Life) and McCoy’s 5 A modified media (Life), respectively, both supplemented with 10%FBS and 1% pennicillin/streptomycin. LNCaP-abl, and LNCaP-95 cell lines were generous gifts from Z. Culig (Innsbruck Medical University, Austria) and J. Isaacs (Johns Hopkins University, Baltimore, MD), respectively. Cell lines were authenticated by STR profiling (Genetica Cell Line Testing; Burlington, NC). A549 and U2OS were purchased from ATCC (product numbers CCL-185 and HTB-96). Cell lines were routinely screened for mycoplasma. Luciferase assays were conducted using stably transfected TOP-flash and 3xARE LNCaP-abl cell lines. For the Wnt pathway, TOP-Flash LNCaP-abl cells were treated with 1 nM siAPC (a 1:1:1 mix of Ambion Silencer Silect siAPC RNA, ID#s s1433, s1434, s1435) for 24 h and seeded into 384-well plates at 5000 cells/well, followed by 24 h of treatment with compound. For the AR-pathway, 3xARE LNCaP-abl cells were seeded into 384-well plates at 5000 cells per well, treated for 48 h with compound, with the addition of R1881 for the final 8 h. Both were measured using the ONE-Glo detection kit (Promega) and data is standardized to CellTiter-Fluor (Promega) viability readings to account for potential variations in well to well cell number. Control Wnt inhibitors were purchased from Sigma with the exception of PRI-724 which was purchased from Selleckchem. Co-immunoprecipitation was carried out using HEK293 cells transfected with either myc-TCF (addgene #32738) or myc-TCF dominant negative (addgene #32739) followed by 48 h of treatment with compound. Cells were lysed using Triton lysis buffer and 1 mg total protein was incubated overnight at 4 C with 40 µl anti-cMyc magnetic beads (Thermo). Total protein concentration in cell lysates were determined using Pierce Rapid Gold BCA Protein Assay Kit (Thermo). The beads were washed 3× with lysis buffer then boiled in 2X sample loading dye.

[3] = target: β-catenin:TCF4 interaction (Homo sapiens, UniProt P35222); assay: biochemical
Protocol: We next characterized the dose response curves for compound 13 in the Wnt and AR luciferase reporters. The linear version of 13 (linear 13: NH2-|N-mpp, N-dmp, N-ipp, N-Smpe, N-Smpe, D-Ala|-OH) was used as a control compound. […] To test direct binding, we pre-formed dynamic light scattering (DLS) with β-catenin in the presence of vehicle, compound 13, and α-cyclodextrin. […] HEK293 cells were transiently transfected with a plasmid expressing full length, myc-tagged TCF4. After 48 h treatment with either vehicle (DMSO) or 10 µM 13, cells were lysed and myc-TCF4 protein was immunoprecipitated.

[4] = test system: A549 (lung adenocarcinoma) cells; assay: 2D proliferation (CellTiter-Fluor viability), A549; type: cell-based; conditions: Wnt-independent cell line, 5 days

β-catenin:TCF4 interaction, sequence (P35222 134-668): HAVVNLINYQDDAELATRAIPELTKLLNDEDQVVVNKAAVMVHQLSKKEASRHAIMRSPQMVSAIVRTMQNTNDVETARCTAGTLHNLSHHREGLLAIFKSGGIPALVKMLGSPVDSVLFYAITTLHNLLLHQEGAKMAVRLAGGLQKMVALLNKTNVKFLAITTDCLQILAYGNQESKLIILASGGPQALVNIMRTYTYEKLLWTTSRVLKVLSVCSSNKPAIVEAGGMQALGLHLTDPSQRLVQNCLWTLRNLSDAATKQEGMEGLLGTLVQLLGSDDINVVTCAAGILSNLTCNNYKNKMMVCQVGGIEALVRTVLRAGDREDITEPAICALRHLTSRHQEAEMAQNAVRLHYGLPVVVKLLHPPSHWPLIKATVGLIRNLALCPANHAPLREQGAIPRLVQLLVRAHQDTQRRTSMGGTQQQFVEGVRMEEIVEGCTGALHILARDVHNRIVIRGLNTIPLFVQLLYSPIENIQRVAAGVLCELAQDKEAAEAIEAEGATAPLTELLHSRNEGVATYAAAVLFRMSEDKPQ

## COc1ccc([C@H](C)N2CC(=O)N[C@H](C)C(=O)N(CCc3ccccc3Oc3ccccc3)CC(=O)N(c3cc(OC)cc(OC)c3)CC(=O)N(CCCOC(C)C)CC(=O)N([C@@H](C)c3ccc(OC)cc3)CC2=O)cc1 [Compound 13] (cyclo([dA][N(2-(2-PhOPh)Et)Gly][Gly(N-3,5-(OMe)2-Ph)][N((CH2)3OiPr)Gly][X1][X1]))
[1]
  Effect on proliferation of U2OS cells: no effect
[2]
  AR mRNA: decreased
  AR-V7 transcription: decreased
  Cyclin D1 mRNA: decreased
  E-cadherin transcription: increased
  FKBP5 mRNA: decreased
  PSA mRNA: decreased
  cMYC mRNA: decreased
[3]
  pIC50: 5.26
[4]
  Effect on proliferation of A549 cells: no effect
